Assay [1] addresses GABAA central benzodiazepine receptor. Kind of assay: Benzodiazepine binding assay ((3H)-flunitrazepam displacement). To be noted: read-out: BZ binding assay (IC50); rat whole brain (except cerebellum), 1 nM (3H)-flunitrazepam, 60 minutes at 25° C.; 3-concentration dose response curve.
Another assay has as its system GABAA receptors. Kind of assay: Electrophysiology assay (two-electrode voltage clamp, Xenopus oocytes expressing GABAA receptors). It is filed as cell-based. To be noted: positive (Pos) or negative (Neg) modulation of current at GABA EC20, screening concentration of 10 μM. As to the method: The modulation of GABAA function is determined by changes in current as determined in an electrophysiology assay, as is detailed below.
mRNA was prepared from lyophilized plasmid pellets containing cDNA inserts encoding the specific GABAA receptor subunit. cDNAs encoding the α2, α3, and γ3 subunits were subcloned into pBluescript, SK^−. cDNAs encoding the a 1 and a 5 subunits were subcloned into prC while cDNA encoding the β2 subunit was subcloned into pcDNA1. The cDNA construct encoding the g 2s subunit is in the pGH19 expression construct. Overnight cultures of transformed DH5a bacterial cells were performed to grow sufficient quantities for maxiprep isolation of the plasmid cDNA. The resulting plasmid cDNA was linearized by digestion with an appropriate restriction enzyme that cleaves distal to the cDNA insert [XbaI (α1, β2), NotI (α3, γ2 s), SacII (α2), or ApaI (α5)]. Following digestion, plasmid cDNA was treated with proteinase K and extracted with phenol/chloroform/isoamyl alcohol, followed by ethanol precipitation. cDNA quality was assessed by agarose-gel electrophoresis (1.5% agarose gel). Samples were stored at −20° C. until use. In vitro transcription was performed with T7 RNA polymerase. mRNA was then stored at −80° C. until use. Plasmids were linearized with appropriate restriction enzymes before in vitro transcription using the Message Machine kit (Ambion, Austin, Tex.).
GABAA receptor expression in Xenopus oocytes: Following 45 min of 0.15% Tricaine anesthesia, an ovarian section containing the follicular oocytes was removed from the frog through a lateral abdominal incision. Oocytes were immediately placed in a calcium-free solution (NaCl 96 mM, MgCl2 1 mM, KCl 2 mM, Hepes 50 mM, pyruvate 2.5 mM, gentamycin 100 μg/mL, penicillin-streptomycin 50 U/mL, pH 7.4). Following 1.5-2 hour incubation in 0.2% collagenase (type II, Sigma Chemical Co., St. Louis, Mo.) at room temperature, individual Dumont stage V and VI oocytes were transferred to an incubator and maintained overnight in Barth's solution (NaCl 84 mM, NaHCO3 2.4 mM, MgSO4 0.82 mM, KCl 1 mM, Ca(NO3)2 0.33 mM, CaCl2 0.41 mM, Tris/HCl 7.5 mM, pyruvate 2.5 mM, gentamycin 50 μg/mL, penicillin-streptomycin, 100 units/mL, pH 7.4) at 18-20° C. and used for experiments 1-5 days post-injection. Oocytes were injected solution using an electronic microinjector (Drummond, Broomall, Pa.) with 50 nL of RNA containing 0.3-0.5 ng of each subunit RNA in a 1:1:2 ratio. The injected oocytes were used for experiments after 1-5 days of incubation in Barth's solution at 18-20° C.
Measurements of ion currents from oocytes expressing GABAA receptors were performed using a Warner two-electrode voltage-clamp amplifier (Warner Instruments, Inc., Foster City, Calif.) (Park-Chung, M. A., et al. (1999) Brain Res. 830: 72-87 incorporated herein in its entirety). Microelectrodes were fabricated from borosilicate glass capillaries with a programmed pipette puller (Sutter Instrument Co., CA). Microelectrode resistance was 1-3 MΩ when filled with 3 M KCl. The oocyte recording chamber was continuously perfused with ND-96 solution. Oocytes were clamped at a holding potential of −70 mV during data acquisition. The membrane current was filtered at 10 Hz and sampled at 100 Hz. Compounds were applied by a gravity-driven external perfusion system. The working volume of the recording chamber was […] and the rate of the perfusion was approximately […]. Compound application was 20-25 sec followed by a minimum of 150 sec wash. Data acquisition and external perfusion was computer controlled by custom-developed software. All experiments were performed at room temperature (22-24° C.). Dose-response data from each oocyte were fitted to the Hill equation by non-linear regression using the equation: IGABA=Emax/(1+(EC50/c)nH)
Emax is the maximum response, EC50 is the concentration producing 50% of the maximal response, nH is the Hill coefficient and c is the concentration of agonist. […]

pIC50: −log10 of the molar value.

With “2-Phenyl-6-(4-iso-propylpiperazin-1-yl)-8-trifluoromethyl-2,5-dihydro-pyrazolo[4,3-c]quinolin-3-one [52d]”, in assay [1], the pIC50 was over 6.00.
Consider `O=c1c2c[nH]c3ccc(N4CCNCC4)cc3c-2nn1-c1ccccc1` [7a, 2-Phenyl-8-piperazin-1-yl-2,5-dihydro-pyrazolo[4,3-c]quinolin-3-one], for which, in assay [1], the pIC50 is over 6.00. For the same compound, in the assay on GABAA receptors, the “EP Result” value is listed as “Pos”.
On the same counts, the results for `CN1CCN(c2ccc3[nH]cc4c(=O)n(-c5ccccc5)nc-4c3c2)CC1` [7b, 8-(4-Methylpiperazin-1-yl)-2-phenyl-2,5-dihydro-pyrazolo[4,3-c]quinolin-3-one] are over 6.00 and “Pos”.
Consider `CC1CN(c2ccc3[nH]cc4c(=O)n(-c5ccccc5)nc-4c3c2)CC(C)O1` (stereo not drawn) [19h, 8-(2,6-Dimethylmorpholin-4-yl)-2-phenyl-2,5-dihydro-pyrazolo[4,3-c]quinolin-3-one], for which, in assay [1], the pIC50 was over 6.00.
Consider `O=c1c2c[nH]c3cc(N4CCNCC4)c(F)cc3c-2nn1-c1ccccc1` [28a, 8-Fluoro-2-phenyl-7-piperazin-1-yl-2,5-dihydro-pyrazolo[4,3-c]quinolin-3-one], for which the negative logarithm of the IC50 (pIC50) in assay [1] is over 6.00.
On the same count and under the same terms, for `CN(C)C1CCN(c2cc3[nH]cc4c(=O)n(-c5ccccc5)nc-4c3cc2F)CC1` [28i, 7-(4-Dimethylaminopiperidin-1-yl)-8-fluoro-2-phenyl-2,5-dihydro-pyrazolo[4,3-c]quinolin-3-one] the value was over 6.00.
Still for that read-out and setting: the value for `O=c1c2c[nH]c3cc(N4CCN(C5CCCC5)CC4)c(F)cc3c-2nn1-c1ccccc1` [28j, 7-(4-Cyclopentylpiperazin-1-yl)-8-fluoro-2-phenyl-2,5-dihydro-pyrazolo[4,3-c]quinolin-3-one] was over 6.00; that for `O=c1c2c[nH]c3cc(N4CCC(O)CC4)c(F)cc3c-2nn1-c1ccccc1` [28k, 8-Fluoro-7-(4-hydroxypiperidin-1-yl)-2-phenyl-2,5-dihydro-pyrazolo[4,3-c]quinolin-3-one] was over 6.00; that for `O=c1c2c[nH]c3cc(N4CCCNCC4)c(F)cc3c-2nn1-c1ccccc1` [28l, 8-Fluoro-7-(perhydro[1,4]-diazepin-1-yl)-2-phenyl-2,5-dihydro-pyrazolo[4,3-c]quinolin-3-one] was over 6.00.
With `CN1CCCN(c2cc3[nH]cc4c(=O)n(-c5ccccc5)nc-4c3cc2F)CC1` [28m, 8-Fluoro-7-(4-methylperhydro[1,4]-diazepin-1-yl)-2-phenyl-2,5-dihydro-pyrazolo[4,3-c]quinolin-3-one], in assay [1], the pIC50 is over 6.00.
Still for that read-out and setting: the value for `O=c1c2c[nH]c3cc(N4CCNCC4)c(F)cc3c-2nn1-c1ccccc1F` [28n, 8-Fluoro-2-(2-fluorophenyl)-7-(piperazin-1-yl)-2,5-dihydro-pyrazolo[4,3-c]quinolin-3-one] was under 6.00.
Same read-out and setting: the value for `CN1CCN(c2cc3[nH]cc4c(=O)n(-c5ccccc5F)nc-4c3cc2F)CC1` [28o, 8-fluoro-2-(2-fluorophenyl)-7-(4-methylpiperazin-1-yl)-2,5-dihydro-pyrazolo[4,3-c]quinolin-3-one] was over 6.00.
On the same count and under the same terms, for `CN1CCN(c2cc3[nH]cc4c(=O)n(-c5ccsc5)nc-4c3cc2F)CC1` [28q, 8-fluoro-7-(4-methylpiperazin-1-yl)-2-(thiophen-3-yl)-2,5-dihydro-pyrazolo[4,3-c]quinolin-3-one] the value was under 6.00.
Consider `O=c1c2c[nH]c3cc(N4CCOCC4)c(F)cc3c-2nn1-c1ccsc1` [28r, 8-fluoro-7-(morpholin-4-yl)-2-(thiophen-3-yl)-2,5-dihydro-pyrazolo[4,3-c]quinolin-3-one], for which the pIC50 in assay [1] is over 6.00.
Still for that read-out and setting: for `O=c1c2c[nH]c3c(F)c(N4CCNCC4)ccc3c-2nn1-c1ccccc1` [48a, 6-Fluoro-2-phenyl-7-piperazin-1-yl-2,5-dihydro-pyrazolo[4,3-c]quinolin-3-one] the value was under 6.00; for `CN1CCN(c2ccc3c4nn(-c5ccccc5)c(=O)c-4c[nH]c3c2F)CC1` [48b, 6-Fluoro-7-(4-methyl-piperazin-1-yl)-2-phenyl-2,5-dihydro-pyrazolo [4,3-c]quinolin-3-one], under 6.00.
Same read-out and setting: for `O=c1c2c[nH]c3c(F)c(N4CCOCC4)ccc3c-2nn1-c1ccccc1` [48c, 6-Fluoro-7-(morpholin-4-yl)-2-phenyl-2,5-dihydro-pyrazolo[4,3-c]quinolin-3-one] the value was over 6.00.
The same measure, in the same setting: for `O=c1c2c[nH]c3c(F)c(N4CCCNCC4)ccc3c-2nn1-c1ccccc1` [48d, 6-Fluoro-7-(perhydro[1,4]-diazepine-1-yl)-2-phenyl-2,5-dihydro-pyrazolo[4,3-c]quinolin-3-one] the value was over 6.00; for `CC(C)N1CCN(c2ccc3c4nn(-c5ccccc5)c(=O)c-4c[nH]c3c2F)CC1` [48e, 6-Fluoro-7-(4-iso-propylpiperazin-1-yl)-2-phenyl-2,5-dihydro-pyrazolo [4,3-c]quinolin-3-one], over 6.00; for `CC(C)N1CCN(c2ccc3c4nn(-c5ccccn5)c(=O)c-4c[nH]c3c2F)CC1` [48f, 6-Fluoro-7-(4-iso-propylpiperazin-1-yl)-2-(2′-pyridyl)-2,5-dihydro-pyrazolo[4,3-c]quinolin-3-one], over 6.00.
Take `O=c1c2c[nH]c3c(N4CCNCC4)cc(C(F)(F)F)cc3c-2nn1-c1ccccc1` [52a, 2-Phenyl-6-piperazin-1-yl-8-trifluoromethyl-2,5-dihydro-pyrazolo[4,3-c]quinolin-3-one]: the pIC50 in assay [1] is over 6.00.
On the same count and under the same terms, the value for `CN1CCN(c2cc(C(F)(F)F)cc3c4nn(-c5ccccc5)c(=O)c-4c[nH]c23)CC1` [52b, 2-Phenyl-6-(4-methylpiperazin-1-yl)-8-trifluoromethyl-2,5-dihydro-pyrazolo[4,3-c]quinolin-3-one] was over 6.00.
Still for that read-out and setting: the value for `O=c1c2c[nH]c3c(N4CCCNCC4)cc(C(F)(F)F)cc3c-2nn1-c1ccccc1` [52c, 2-Phenyl-6-(perhydro[1,4]-diazepine-1-yl)-8-trifluoromethyl-2,5-dihydro-pyrazolo[4,3-c]quinolin-3-one] was over 6.00.
In the case of `O=c1c2c[nH]c3c(N4CCOCC4)cc(N4CCOCC4)cc3c-2nn1-c1ccccc1` [58a, 6,8-Bis(morpholin-4-yl)-2-phenyl-2,5-dihydro-pyrazolo[4,3-c]quinolin-3-one], the “EP Result” value in the assay on GABAA receptors was “Neg”.
Same read-out and setting: for `CC(C)N1CCN(c2cc(N3CCN(C(C)C)CC3)c3[nH]cc4c(=O)n(-c5ccccc5)nc-4c3c2)CC1` [58b, 6,8-Bis(4-iso-propylpiperazin-1-yl)-2-phenyl-2,5-dihydro-pyrazolo[4,3-c]quinolin-3-one] the value was “Neg”.
With `Cc1[nH]c2cc(N3CCNCC3)c(F)cc2c2nn(-c3ccccc3)c(=O)c1-2` [63a, 8-Fluoro-4-methyl-2-phenyl-7-piperazin-1-yl-2,5-dihydro-pyrazolo[4,3-c]quinolin-3-one], the pIC50 in assay [1] is under 6.00.
With `Cc1[nH]c2cc(N3CCOCC3)c(F)cc2c2nn(-c3ccccc3)c(=O)c1-2` [63b, 8-Fluoro-4-methyl-7-morpholin-4-yl-2-phenyl-2,5-dihydro-pyrazolo [4,3-c]quinolin-3-one], in assay [1], the pIC50 was under 6.00.
On the same count and under the same terms, for `O=c1c2c[nH]c3cc(N4CCOCC4)c(F)c(N4CCOCC4)c3c-2nn1-c1ccccc1` [compound 55, 7,9-Bis(morpholin-4-yl)-8-fluoro-2-phenyl-2,5-dihydro-pyrazolo[4,3-c]quinolin-3-one] the value was over 6.00.

(Values after patent publication US8598159B2, “Therapeutic pyrazoloquinoline derivatives” (Dart Neuroscience (Cayman) Ltd., priority 2007, dated 2013).)
